Article PMC7449170, “ATI-2173, a Novel Liver-Targeted Non-Chain-Terminating Nucleotide for Hepatitis B Virus Cure Regimens” (Antimicrobial Agents and Chemotherapy, 2020)
pEC50: −log10 of the molar value.

Assays:
iCell cardiomyocytes = assay: Cytotoxicity in iCell cardiomyocytes (CellTiter-Glo); conditions: up to 100 μM, 72 h
Procedure: (§1) HK-2 human kidney cells were obtained from ATCC (Manassas, VA) and cultured in Gibco Keratinocyte serum-free medium (Thermo Fisher Scientific, Waltham, MA) supplemented with 10% FBS (Peak Serum, Wellington, CO). Human skeletal muscle cells were obtained from Lonza (Walkersville, MD) and cultured in SkGM-2 skeletal muscle cell growth medium-2 (Lonza). Both HK-2 and skeletal muscle cells were cultured humidified at 37°C and 5% CO2. Cryopreserved human primary hepatocytes and medium were received from Lonza. Cryopreserved iCell cardiomyocytes and cardiomyocyte medium were purchased from Stem Cell Technologies (Vancouver, BC, Canada). Cryopreserved human bone marrow mononuclear cells were purchased from Lonza with HemaTox Myeloid medium purchased from [sequence] […] All cryopreserved cells (human primary hepatocytes, iCell cardiomyocytes, and human bone marrow mononuclear cells) were stored in vapor phase liquid nitrogen until the day of plating. […] Serial dilutions of compounds in DMSO were as follows: 100, 10, 1, 0.1, 0.01, 0.001, 0.0001, and 0.00001 μM (final concentration of DMSO in medium was 0.5%). […]
(§2) Following incubation, cells were dosed and incubated for 72 h at 37°C and 5% CO2. Following incubation, the endpoint cell viability CellTiter-Glo 2.0 assay (Promega, San Luis Obispo, CA) was performed and luminescence data collected on a Synergy 4 plate reader (Biotek, Winooski, VT). […]

HBV wild type (U95551) = assay: Cross-resistance in transfected HepG2 cells, wild type; type: cell-based, Hepatitis B virus; conditions: Hepatitis B virus
[1] = system: HBV genotype G (AB064315); assay: microbe, parasite or virus in culture; type: cell-based; conditions: Hepatitis B virus, HepG2
HK-2 human kidney cells = assay: Cytotoxicity in HK-2 kidney cells (CellTiter-Glo); conditions: up to 100 μM, 72 h
Procedure: as §1, §2

HBV rtA181V = assay: microbe, parasite or virus in culture; type: cell-based; conditions: Hepatitis B virus, HepG2
HBV = assay: Serum shift of anti-HBV EC50; type: cell-based, Hepatitis B virus; conditions: data not shown
[2] = system: HBV genotype E (AB091255); assay: microbe, parasite or virus in culture; type: cell-based; conditions: Hepatitis B virus, HepG2
[3] = Hepatic extraction in portal vein cannulated monkeys; type: in vivo; conditions: cynomolgus monkeys with portal vein cannulation, single oral 20 mg/kg and intravenous 2 mg/kg, data not shown
hepatitis C virus = assay: Antiviral panel: hepatitis C virus; type: cell-based; conditions: up to 100 μM, data not shown
influenza virus = type: cell-based
HBV coreT33N = assay: microbe, parasite or virus in culture; type: cell-based, Hepatitis B virus; conditions: Hepatitis B virus, HepG2
HBV genotype D = assay: Anti-HBV activity in HepG2.2.15 cells (extracellular HBV DNA by qPCR); type: cell-based; conditions: Hepatitis B virus, 192 h; HepG2.2.15 cells, qPCR, day 8; read-out: EC50, extracellular HBV DNA
Procedure: ATI-2173 was obtained from WuXi SynTheAll. Entecavir (positive control) was obtained from Shanghai Titan Scientific Co., Ltd. HepG2.2.15 cells (derived from human hepatoblastoma cell-like HepG2) contain four 5′ to 3′ tandem copies of the HBV genotype D and were provided by WuXi. HepG2.2.15 cells were cultured in Dulbecco’s modified Eagle medium (DMEM)/F12 (Invitrogen, 11330032) supplemented with 2% fetal bovine serum (FBS) (HyClone, SV30087.03), 1% L-glutamine, 1% minimum essential medium (MEM) nonessential amino acid solution (NEAA), and 1% penicillin-streptomycin solution. QIAamp 96 DNA blood kit was purchased from Qiagen (51162). […] Culture medium containing ATI-2173 or entecavir (serially diluted) was added to cells on day 2 and refreshed on day 5. ATI-2173 dilutions were: 0.0006, 0.0024, 0.0098, 0.0391, 0.1563, 0.6250, 2.5000, and 10.0000 μM. On day 8, cell culture supernatants were collected and DNA was extracted by the QIAamp 96 DNA blood kit. qPCR was run at 95°C for 10 min, then cycled at 95°C for 15 s, 60°C for 1 min, for a total of 40 cycles. HBV DNA content in the samples was calculated according to the standard curve and CT (cycle threshold of qPCR) values of a sample. Data were normalized for maximum and minimum copy numbers.

herpes simplex virus 1 = assay: Antiviral panel: herpes simplex virus 1; type: cell-based; conditions: up to 100 μM, data not shown
HBV rtS202G+M204I = assay: microbe, parasite or virus in culture; type: cell-based; conditions: Hepatitis B virus, HepG2
[4] = Cell viability (CC50) in primary human hepatocytes
[5] = system: HBV genotype A (HE974371); assay: microbe, parasite or virus in culture; type: cell-based; conditions: Hepatitis B virus, HepG2
HBV genotype D (U955551) = assay: microbe, parasite or virus in culture; type: cell-based; conditions: Hepatitis B virus, HepG2
[6] = system: cryopreserved primary human hepatocytes; assay: Cytotoxicity in primary human hepatocytes (CellTiter-Glo); conditions: up to 100 μM, 72 h
Procedure: as §1, §2

In the case of `Cc1cn(C2OC(COP(=O)(NC(C)C(=O)OC(C)C)Oc3ccccc3)C(O)C2F)c(=O)[nH]c1=O` (stereo not drawn) [ATI-2173], the Cytotoxicity (iCell cardiomyocytes) was “did not demonstrate any cytotoxicity”, the pEC50 (HBV wild type (U95551)) was 6.22 and the pEC50 [1] was 6.64. For the same compound, the Cytotoxicity (HK-2 human kidney cells) was “did not demonstrate any cytotoxicity”, the pEC50 (HBV rtA181V) was less than 5.00 and the “Serum shift in EC50” value (HBV) was “no clear serum shift”. The pEC50 [2] was 6.37, the Hepatic extraction [3] was 82% and the Antiviral efficacy (hepatitis C virus) was “no detectable efficacy”. For the same compound, the Antiviral efficacy (influenza virus) was “no detectable efficacy”, the pEC50 (HBV coreT33N) was 6.47 and the pEC50 (HBV genotype D) was 6.59. The Antiviral efficacy (herpes simplex virus 1) was “no detectable efficacy”, the pEC50 (HBV rtS202G+M204I) was less than 5.00 and the CC50 [4] was greater than 20 nM. For the same compound, the pEC50 [5] was 6.38, the pEC50 (HBV genotype D (U955551)) was 6.63 and the Cytotoxicity [6] was “did not demonstrate any cytotoxicity”.
